Read-outs that look alike come from different tables or passages of the source.
Experiments:
[1] = tested on: Wnt/β-catenin transactivation; experiment: Wnt-responsive TOPFlash luciferase reporter assay, SW480; format: cell-based; conditions: Homo sapiens, mean ± SD (n = 3), Table 6
SW480 cells = experiment: MTS cell viability assay, SW480; format: cell-based; conditions: mean ± SD (n = 3)
Procedure: (§1) MTS Cell Viability Assay. Colorectal cancer cells (SW480 and HCT116), TNBC cells (MDA-MB-231, MDA-MB-468, and BT-20), and lung cancer A549 cells were seeded in 96-well plates at 5×10^3 cells/well, maintained overnight at 37° C., and incubated with the tested compounds at various concentrations. Cell viability was monitored after 72 h using a freshly prepared mixture of 1 part phenazine methosulfate (PMS, Sigma) solution (0.92 mg/mL) and 19 parts 3-(4,5-dimethylthiazol-2-yl)-5-(3-carboxymethoxyphenyl)-2-(4-sulfophenyl)-2H-tetrazolium (MTS, Promega) solution (2 mg/mL). Cells were incubated in 10 μL of this solution at 37° C. for 3 h, and A490 was measured. The effect of each compound is expressed as the concentration required to reduce A490 by 50% (IC50) relative to DMSO-treated cells. Experiments were performed in triplicate.

[2] = target: T1, β-catenin/Tcf protein-protein interaction (Homo sapiens, UniProt P35222); experiment: FP competitive inhibition assay; format: binding
T1 construct: Wild-type β-catenin (residues 138-781) were cloned into a pET-28b vector; 6×histidine (C); made in house; host or cells: E. coli BL21 DE3
T1 sequence (P35222 138-781): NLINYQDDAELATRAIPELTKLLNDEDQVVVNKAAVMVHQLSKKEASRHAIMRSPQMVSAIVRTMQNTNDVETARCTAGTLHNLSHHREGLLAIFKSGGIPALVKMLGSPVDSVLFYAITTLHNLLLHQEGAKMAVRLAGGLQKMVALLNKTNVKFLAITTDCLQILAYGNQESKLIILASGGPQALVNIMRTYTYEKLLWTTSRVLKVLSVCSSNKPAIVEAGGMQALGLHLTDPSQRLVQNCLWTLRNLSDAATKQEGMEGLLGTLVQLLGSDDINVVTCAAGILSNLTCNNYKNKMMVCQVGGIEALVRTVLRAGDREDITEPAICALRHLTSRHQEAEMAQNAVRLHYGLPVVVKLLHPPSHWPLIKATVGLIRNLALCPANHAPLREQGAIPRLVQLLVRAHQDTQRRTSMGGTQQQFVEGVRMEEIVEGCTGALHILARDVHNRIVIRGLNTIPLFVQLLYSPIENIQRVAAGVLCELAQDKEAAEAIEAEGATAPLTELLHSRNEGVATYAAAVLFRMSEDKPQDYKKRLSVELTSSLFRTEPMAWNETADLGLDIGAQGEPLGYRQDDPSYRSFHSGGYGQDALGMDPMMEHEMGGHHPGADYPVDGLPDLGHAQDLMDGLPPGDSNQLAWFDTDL
Method in brief: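 His-tagged human β-catenin (residues 138-781, E. coli-expressed) at 10 nM with 2.5 nM fluorescein-labeled Tcf4 (7-51) in PBS-type buffer with bovine γ-globulin and 0.01% Triton X-100. Compounds added, 1.5 h at 4 °C, 1% DMSO, before fluorescence polarization read. IC50 by nonlinear fit; Ki derived from IC50.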

A549 cells = experiment: MTS cell viability assay, A549; format: cell-based; conditions: Homo sapiens, 72 h, mean ± SD (n = 3), Table 4, read-out: MTS cell viability IC50, Wnt normal A549
Procedure: as §1

[3] = tested on: Wnt/β-catenin transactivation; experiment: Wnt-responsive TOPFlash luciferase reporter assay, β-catenin-activated HEK cells; format: cell-based; conditions: HEK293, read-out: TOPFlash IC50 ± SD, β-catenin-activated HEK293, 24 h treatment, mean ± SD (n = 3), read-out: TOPFlash IC50 ± SD, β-catenin-activated HEK239
Procedure: Cell Transfection and Luciferase Assay. FuGENE 6 (E2962, Promega) in the 96-well plate format was used for the transfection of HEK293 cells according to the manufacturer's instructions. HEK293 cells were co-transfected with 45 ng of the TOPFlash or FOPFlash reporter gene, and 135 ng of pcDNA3.1-β-catenin. Cells were cultured in DMEM and 10% fatal bovine serum (FBS) at 37° C. for 24 h, and different concentrations of inhibitors were then added. After 24 h, the luciferase reporter activity was measured using the Dual-Glo system (E2940, Promega). Normalized luciferase activity in response to the treatment with the inhibitors was compared with that obtained from the cells treated with DMSO. Experiments were performed in triplicate.

HCT116 cells = experiment: MTS cell viability assay, HCT116; format: cell-based; conditions: Homo sapiens, HCT-116; 72 h; mean ± SD (n = 3); Table 5; read-out: MTS cell viability IC50, Wnt hyperactive cancer cells HCT116
Procedure: as §1

[4] = Homo sapiens, SW480, 72 h, Table 4, read-out: MTS cell viability IC50, Wnt hyperactive SW480 Cells (converted)
[5] = Assay 1, mean ± SD (n = 3), read-out: Ki ± SD, Assay 1
[6] = Homo sapiens, SW480, 72 h, Table 5, read-out: MTS cell viability IC50, Wnt hyperactive cancer cells SW480
[7] = Assay 2, mean ± SD (n = 3), read-out: Ki ± SD, Assay 2
[8] = Assay 3, mean ± SD (n = 3), read-out: Ki ± SD, Assay 3
[9] = Assay 4, mean ± SD (n = 3), read-out: Ki ± SD, Assay 4

IC50 [1] [µM]	IC50 (SW480 cells; 72 h, Table 4, read-out: MTS cell viability IC50, Wnt hyperactive SW480 Cells (converted)) [µM]	IC50 (SW480 cells; [4]) [µM]	Ki [2, 5] [µM]	IC50 ([3]; Table 6) [µM]	IC50 (SW480 cells; [6]) [µM]	Ki [2, 7] [µM]	IC50 (HCT116 cells) [µM]	IC50 ([3]; Table 7) [µM]	Ki [2, 8] [µM]	Ki [2, 9] [µM]	Ki ([2]; Assay 5, mean ± SD (n = 3), read-out: Ki ± SD, Assay 5) [µM]	SMILES	IC50 (A549 cells) [µM]
4.3 ± 1.2	3.2	3.1 ± 1.8	4.1 ± 1.1	11 ± 2.3								COC(=O)c1ccc2c(c1)c(CCc1ccc(Cl)cc1)c(CCc1nc3cc(OC)ccc3s1)n2CCc1nn[nH]n1 [Compound 35, Methyl 1-(2-(2H-tetrazol-5-yl)ethyl)-3-(4-chlorophenethyl)-2-(2-(5-methoxybenzo[d]thiazol-2-yl)ethyl)-1H-indole-5-carboxylate]	13 ± 5.9
			3.6 ± 0.35		19 ± 1.6	2.8 ± 0.17	24 ± 2.8					COc1ccc2sc(CCc3c(CCc4ccc(Cl)cc4)c4cc(C(=O)NCc5ccncn5)ccc4n3CCc3nn[nH]n3)nc2c1 [Compound 57, 1-(2-(2H-tetrazol-5-yl)ethyl)-3-(4-chlorophenethyl)-2-(2-(5-methoxybenzo[d]thiazol-2-yl)ethyl)-N-(pyrimidin-4-ylmethyl)-1H-indole-5-carboxamide]	
		69 ± 11										COC(=O)c1ccc2c(c1)c(CCc1ccc(Cl)cc1)c(CCc1nc3ccccc3[nH]1)n2CCc1nn[nH]n1 [Compound 34, Methyl 2-(2-(1H-benzo[d]imidazol-2-yl)ethyl)-1-(2-(2H-tetrazol-5-yl)ethyl)-3-(4-chlorophenethyl)-1H-indole-5-carboxylate]	120 ± 44
			10 ± 1.6		81 ± 17			50 ± 5.7				Cc1ccc(CCc2c(-c3ccsc3)n(CCc3nn[nH]n3)c3ccc(C(=O)NOC4CCCCO4)cc23)cc1 (centres unmarked) [Compound 92, 1-(2-(2H-tetrazol-5-yl)ethyl)-3-(4-methylphenethyl)-N-((tetrahydro-2H-pyran-2-yl)oxy)-2-(thiophen-3-yl)-1H-indole-5-carboxamide]	
			2.7 ± 0.26		32 ± 3.6	4.9 ± 0.36	46 ± 5.3	9.9 ± 1.5	26 ± 2.7			Cc1ccc(CCc2c(-c3csc(C(F)F)c3)n(CCc3nn[nH]n3)c3ccc(C(=O)NCc4ccon4)cc23)cc1 [Compound 94, 1-(2-(2H-tetrazol-5-yl)ethyl)-2-(5-(difluoromethyl)thiophen-3-yl)-N-(isoxazol-3-ylmethyl)-3-(4-methylphenethyl)-1H-indole-5-carboxamide]	
		160 ± 17	2.6 ± 0.57			0.22 ± 0.06			2.6 ± 0.32			COc1ccc2sc(CCc3c(CCc4ccc(Cl)cc4)c4cc(C(=O)OCc5ccc(Cl)cc5)ccc4n3CCc3nn[nH]n3)nc2c1 [Compound 70, 4-Chlorobenzyl 1-(2-(2H-tetrazol-5-yl)ethyl)-3-(4-chlorophenethyl)-2-(2-(5-methoxybenzo-[d]thiazol-2-yl)ethyl)-1H-indole-5-carboxylate]	310 ± 27
12 ± 1.3		12 ± 1.4	1.6 ± 0.37	42 ± 5.8		0.35 ± 0.15			1.3 ± 0.37	0.92 ± 0.06		O=C(NCc1ccc(F)cc1)c1ccc2c(c1)c(CCc1ccc(F)cc1)c(CCc1nc3ccccc3s1)n2CCc1nn[nH]n1 [Compound 44, 1-(2-(2H-tetrazol-5-yl)ethyl)-2-(2-(benzo[d]thiazol-2-yl)ethyl)-N-(4-fluorobenzyl)-3-(4-fluoro-phenethyl)-1H-indole-5-carboxamide]	42 ± 5.8
			7.2 ± 0.77		36 ± 3.9	7.4 ± 0.23	44 ± 5.4		13 ± 1.3			Cc1ccc(CCc2c(-c3ccsc3)n(CCc3nn[nH]n3)c3ccc(C(=O)NCc4ccon4)cc23)cc1 [Compound 93, 1-(2-(2H-tetrazol-5-yl)ethyl)-N-(isoxazol-3-ylmethyl)-3-(4-methylphenethyl)-2-(thiophen-3-yl)-1H-indole-5-carboxamide]	
			2 ± 0.29		19 ± 1.8	7.6 ± 0.94	12 ± 1.8					COc1ccc2sc(CCc3c(CCc4ccc(Cl)cc4)c4cc(C(=O)NCc5cnccn5)ccc4n3CCc3nn[nH]n3)nc2c1 [Compound 58, 1-(2-(2H-tetrazol-5-yl)ethyl)-3-(4-chlorophenethyl)-2-(2-(5-methoxybenzo[d]thiazol-2-yl)ethyl)-N-(pyrazin-2-ylmethyl)-1H-indole-5-carboxamide]	
			1 ± 0.094		35 ± 4.3	2.9 ± 0.24	40 ± 5.3					COc1ccc2sc(CCc3c(CCc4ccc(Cl)cc4)c4cc(C(=O)NCc5ccno5)ccc4n3CCc3nn[nH]n3)nc2c1 [Compound 61, 1-(2-(2H-tetrazol-5-yl)ethyl)-3-(4-chlorophenethyl)-N-(isoxazol-5-ylmethyl)-2-(2-(5-methoxybenzo[d]thiazol-2-yl)ethyl)-1H-indole-5-carboxamide]	
			0.97 ± 0.39		14 ± 2.2	0.7 ± 0.02	12 ± 1.9					O=C(NCc1ccc(Cl)cc1)c1ccc2c(c1)c(CCc1ccc(F)cc1)c(CCc1nc3ccccc3s1)n2CCc1nn[nH]n1 [Compound 45, 1-(2-(2H-tetrazol-5-yl)ethyl)-2-(2-(benzo[d]thiazol-2-yl)ethyl)-N-(4-chlorobenzyl)-3-(4-fluoro-phenethyl)-1H-indole-5-carboxamide]	
			0.4 ± 0.14		> 400	0.97 ± 0.14	> 400		0.25 ± 0.079	0.36 ± 0.07	0.23	Cc1ccc(CCc2c(-c3ccsc3)n(CCc3nn[nH]n3)c3ccc(C(=O)O)cc23)cc1 [Compound 78, 1-(2-(2H-tetrazol-5-yl)ethyl)-3-(4-methylphenethyl)-2-(thiophen-3-yl)-1H-indole-5-carboxylic acid]	
			4.2 ± 0.43		14 ± 1.7	1.9 ± 0.17	23 ± 2.5					COc1ccc2sc(CCc3c(CCc4ccc(Cl)cc4)c4cc(C(=O)NCc5ccncc5)ccc4n3CCc3nn[nH]n3)nc2c1 [Compound 56, 1-(2-(2H-tetrazol-5-yl)ethyl)-3-(4-chlorophenethyl)-2-(2-(5-methoxybenzo[d]thiazol-2-yl)ethyl)-N-(pyridin-4-ylmethyl)-1H-indole-5-carboxamide]	

From patent US11530186B2, “Inhibitors for the β-catenin / T-cell factor protein-protein interaction” (H. LEE MOFFITT CANCER CENTER AND RESEARCH INSTITUTE, INC., priority 2018, dated 2022)
